Results on one compound are retold here after US11959088B2, “Modifying protein production in plants” (MEDICAGO INC., priority 2014, dated 2024).

Structures are written as SMILES.

Assay [1] concerns Nicotiana benthamiana plants. Briefly: BAP treatment after seedling transplantation: HA production (hemagglutination assay) after agroinfiltration with construct 484. Format: in vivo. Particulars: 500 ppm after 7 and 12 days.
Assay [2] concerns Nicotiana benthamiana plants. As to the kind of experiment: BAP treatment after seedling transplantation: primary and secondary leaf biomass. Format: in vivo.
The mark [3] stands for this setting: 500 ppm 7 days after transplantation.

For the compound `c1ccc(CNc2ncnc3nc[nH]c23)cc1` [BAP, 6-benzylaminopurine], in assay [1] (versus control (non-treated) plants), the “increase of total HA yield per plant” value is reported as 45-50%. For the same compound, the “yield of HA per g fresh weight” value in assay [1] (control less than 200,000 units (FIG. 10)) is listed as “more than 300,000 units per g fresh weight”. Besides, the “effect on primary biomass” value in assay [2] (100, 500 or 1,000 ppm, 7 and/or 12 days after transplantation (FIG. 9)) is recorded as “little effect”. Further, the “effect on secondary biomass production” value in assay [2] (100 or 500 ppm, 7 and/or 12 days after transplantation (FIG. 9)) was “significant positive effect”. In assay [2] (setting [3]), the “increase for primary biomass compared to control” value is recorded as “less than 10%” and the “relative increase of secondary leaf biomass compared to control (non-treated) plants” value is listed as “about 37.5%”. In addition, the “effect on secondary biomass production” value in assay [2] (1,000 ppm treatment (FIG. 9)) is given as “no positive impact”. In addition, in assay [2] (plants treated with 500 ppm 7 days after transplantation, control ca. 16 g), the “secondary leaf biomass harvested” value is “ca. 22 g”.
